The text below walks through data of US8653083B2, “Hedgehog pathway antagonists to treat disease” (The Johns Hopkins University, priority 2005, dated 2014).

The subject of assay [1] is Sonic hedgehog (Shh) signaling. Put plainly: Cultured cell based Sonic hedgehog (Shh) signaling assay, luciferase reporter. The procedure:
A library of drugs was previously tested in humans for agents that antagonize Hedgehog signaling. […] The assays used for the screen for Hh pathway antagonists proceeded essentially as described in reference 5. Briefly, each candidate compound was added at 10 uM to a cultured cell based Sonic hedgehog (Shh) signaling assay in high through-put format. This assay utilized cells with a stably integrated firefly luciferase reporter that is responsive to ShhN signaling. These cells also contain a stably integrated, constitutively expressed Renila luciferase gene that can be used for normalization of response to Shh, and used also to monitor cell health.
On the technique in general: In a reporter assay the amount or activity of a reporter protein is the signal.

Another assay relates to 22RV1 xenografts. Put plainly: 22RV1 human prostate cancer xenografts in athymic mice, tumor growth. The settings on record: itraconazole 37.5 mg/kg. The class given is in vivo. For orientation: A xenograft is tissue or cells of one species grown in another, often human tumour cells in immunodeficient mice.
The test system of another assay is AT6.3 metastasis model. Kind of assay: AT6.3 Dunning prostate cancer metastasis model, survival. The class given is in vivo, mice. The settings on record: cyclopamine comparator, dose not given.
The mark [2] stands for this setting: Hh pathway inhibition, cells with ShhN-responsive firefly luciferase reporter, normalized to Renila luciferase, titration of 10 uM hits, read-out: IC50.

Structures are written as SMILES. pIC50: −log10 of the molar value. Structures can show the parent of a compound that is named as a salt. Where two headings read alike, the source gives them in different places. Where only a bound is given, the exact number is not on record here.

For the molecule `CCC(C)n1ncn(-c2ccc(N3CCN(c4ccc(OCC5COC(Cn6cncn6)(c6ccc(Cl)cc6Cl)O5)cc4)CC3)cc2)c1=O` (racemic) [Itraconazole, (±)-cis-4-[4-[4-[4-[[2-(2,4-dichlorophenyl)-2-(1H-1,2,4-triazol-1-yl-methyl)-1,3-dioxolan-4-yl)methoxy]phenyl]-1-piperazinyl]phenyl]-2,4-dihydro-2-(1-methylpropyl)-3H-1,2,4-triazol-3-one], the pIC50 in assay [1] (setting [2]) is 6.52. Moreover, in the assay with 22RV1 xenografts, the tumor volume change was −100 % volume.

In the case of `Nc1ncn([C@@H]2O[C@H](CO)[C@@H](O)[C@H]2O)c(=O)n1` [5-AZACYTIDINE], in assay [1] (setting [2]), the pIC50 is 5.52 to 6.00.

`CN(C)CCC=C1c2ccccc2CCc2ccccc21` [Amitriptyline]: the pIC50 in assay [1] (setting [2]) was 5.52 to 6.00.

Take `COc1ccc(C[C@H]2NC[C@H](O)[C@H]2OC(C)=O)cc1` [Anisomycin]: the negative logarithm of the IC50 (pIC50) in assay [1] (setting [2]) was greater than 7.00.

Molecule `COc1cc2c(c(OC)c1OC)-c1ccc(=O)c(O)cc1[C@@H](NC(C)=O)CC2` [COLCHICEINE] showed a pIC50 in assay [1] of 6.00 to 6.52.

Turning to `C=C1C(=O)O[C@H]2C[C@@H]1C(OC(C)=O)C/C(C)=C/CC/C(C)=C/CC[C@@]2(C)O` (some centres unmarked) [CRASSIN ACETATE], the pIC50 in assay [1] (setting [2]) is 5.52 to 6.00.

For `Cc1ccc2c(Cl)cc(Cl)c(O)c2n1` [Chlorquinaldol, 5,7-Dichloro-2-methyl-8-quinolinol], the pIC50 in assay [1] (setting [2]) is 5.52.

`CN1CCN(C2=Nc3ccccc3Sc3ccc(Cl)cc32)CC1` [Clothiapine]: in assay [1] (setting [2]), the pIC50 is 5.52 to 6.00.

In turn, `C[C@@H]1C[C@@H]([C@H](O)CC2CC(=O)NC(=O)C2)C(=O)[C@@H](C)C1` [Cycloheximide] showed a pIC50 in assay [1] of 6.00 to 6.52.

Molecule `CC1=C2C[C@H]3[C@@H](CC=C4C[C@@H](O)CC[C@@]43C)[C@@H]2CC[C@]12O[C@@H]1C[C@H](C)CN[C@H]1[C@H]2C` [Cyclopamine] had a pIC50 in assay [1] of 6.00 to 6.52. The survival result in the assay with AT6.3 metastasis model is “extending survival”.

For the molecule `C[C@H]1[C@@H](O)O[C@@H]2O[C@@]3(C)CC[C@H]4[C@H](C)CC[C@@H]1[C@@]24OO3` [DIHYDROARTEMISIMIN], in assay [1] (setting [2]), the pIC50 was 5.52 to 6.00.

For `CCOC(=O)NC1=C(N2CC2)C(=O)C(NC(=O)OCC)=C(N2CC2)C1=O` [Diaziquone], the pIC50 in assay [1] (setting [2]) was 6.00 to 6.52.

Turning to `CC(=O)Oc1ccc2c(c1)CC[C@@H]1[C@@H]2CC[C@]2(C)[C@@H](O)CC[C@@H]12` [ESTRADIOL ACETATE], in assay [1] (setting [2]), the negative-log IC50 (pIC50) is 5.52 to 6.00.

On to `CC12CCC(CC1)C(C)(C)O2` [Eucalyptol], for which the pIC50 in assay [1] (setting [2]) was 6.00 to 6.52.

For the molecule `OCCOCCN1CCN(C(c2ccccc2)c2ccc(Cl)cc2)CC1` (centres unmarked) [Hydroxyzine], the pIC50 in assay [1] (setting [2]) is 6.00 to 6.52.

Consider `CN(C)CCCN1c2ccccc2CCc2ccccc21` [Imipramine], for which the pIC50 in assay [1] (setting [2]) was 5.52 to 6.00.

With `CN1CCN(C2=Nc3ccccc3Oc3ccc(Cl)cc32)CC1` [LOXAPINE SUCCINATE], the pIC50 in assay [1] (setting [2]) was 6.52 to 7.00.

For the molecule `CC[C@H]1/C=C/C=C/C[C@@H](C)[C@H](O)[C@@](C)(O)C(=O)[C@@H](C)[C@H](O)[C@@H](C)C(=O)[C@@H](C)[C@H](O)[C@@H](C)/C=C/C(=O)O[C@@H]2[C@H](C)[C@H](CC1)O[C@]1(CC[C@H](C)[C@H](C[C@@H](C)O)O1)[C@H]2C` [OLIGOMYCIN], the pIC50 in assay [1] (setting [2]) is greater than 7.00.

Turning to `CC(COc1ccccc1)N(CCCl)Cc1ccccc1` (centres unmarked) [PHENOXYBENZAMINE HYDROCHLORIDE], the negative logarithm of the IC50 (pIC50) in assay [1] (setting [2]) was 5.52 to 6.00.

`CN1CCC(=C2c3ccccc3Sc3ccccc32)CC1` [PIMETHIXENE MALEATE]: the pIC50 in assay [1] (setting [2]) was 6.00 to 6.52.

`CN(C)CCCN1c2ccccc2Sc2ccccc21` [PROMAZINE HYDROCHLORIDE]: the negative logarithm of the IC50 (pIC50) in assay [1] (setting [2]) was 5.52 to 6.00.

Turning to `CC(CN1c2ccccc2Sc2ccccc21)N(C)C` (centres unmarked) [PROMETHAZINE HYDROCHLORIDE], in assay [1] (setting [2]), the pIC50 is 6.00 to 6.52.

In the case of `C=C(C)[C@H]1Cc2c(ccc3c2O[C@@H]2COc4cc(OC)c(OC)cc4[C@@H]2C3=O)O1` [ROTENONE], the pIC50 in assay [1] was 5.52 to 6.00.

With `O=C(c1ccc(OCCN2CCCCC2)cc1)c1c(-c2ccc(O)cc2)sc2cc(O)ccc12` [Raloxifene hydrochloride], in assay [1] (setting [2]), the pIC50 is 5.52 to 6.00.

As for `CC[C@@H](C(=O)[C@@H](C)[C@@H](O)[C@H](C)[C@@H]1O[C@@H]([C@@H](CC)C(=O)O)CC[C@@H]1C)[C@H]1O[C@]2(C=C[C@@H](O)[C@]3(CC[C@@](C)([C@H]4CC[C@](O)(CC)[C@H](C)O4)O3)O2)[C@H](C)C[C@@H]1C` [SALINOMYCIN, SODIUM], in assay [1] (setting [2]), the negative logarithm of the IC50 (pIC50) is greater than 7.00.

In the case of `Nc1ccc(S(=O)(=O)Nc2cnc3ccccc3n2)cc1` [SULFAQUINOXALINE SODIUM], the pIC50 in assay [1] (setting [2]) was 6.00 to 6.52.

With `Cc1cc(NS(=O)(=O)c2ccc(N)cc2)nc(C)n1` [Sulfisomidine], the pIC50 in assay [1] (setting [2]) was 6.00 to 6.52.

For `CC(CN(C)C)CN1c2ccccc2CCc2ccccc21` (centres unmarked) [TRIMIPRAMINE MALEATE], in assay [1] (setting [2]), the pIC50 was 5.52 to 6.00.

For the molecule `CC[C@]1(O)C[C@@H]2CN(CCc3c([nH]c4ccccc34)[C@@](C(=O)OC)(c3cc4c(cc3OC)N(C)[C@H]3[C@@](O)(C(=O)OC)[C@H](OC(C)=O)[C@]5(CC)C=CCN6CC[C@]43[C@@H]65)C2)C1` [Vinblastine sulfate], the pIC50 in assay [1] (setting [2]) was 6.00 to 6.52.

As to `CC[C@]1(O)C[C@H]2CN(CCc3c([nH]c4ccccc34)[C@@](C(=O)OC)(c3cc4c(cc3OC)N(C=O)[C@H]3[C@@](O)(C(=O)OC)[C@H](OC(C)=O)[C@]5(CC)C=CCN6CC[C@]43[C@@H]65)C2)C1` [Vincristine sulfate], the pIC50 in assay [1] (setting [2]) was greater than 7.00.

`CC[C@]1(O)C[C@@H]2CN(CCc3c([nH]c4ccccc34)[C@@](C(=O)OC)(c3cc4c(cc3OC)N(C)[C@H]3[C@@](O)(C(N)=O)[C@H](O)[C@]5(CC)C=CCN6CC[C@]43[C@@H]65)C2)C1` [Vindesine]: the pIC50 in assay [1] (setting [2]) is greater than 7.00.

As for `CCC1=C[C@@H]2CN(C1)Cc1c([nH]c3ccccc13)[C@@](C(=O)OC)(c1cc3c(cc1OC)N(C)[C@H]1[C@@](O)(C(=O)OC)[C@H](OC(C)=O)[C@]4(CC)C=CCN5CC[C@]31[C@@H]54)C2` [Vinorelbine tartrate], the pIC50 in assay [1] (setting [2]) was greater than 7.00.

Turning to `c1cc(CN2CCCCC2)cc(OCCCNc2nc3ccccc3s2)c1` [Zolantidine], the pIC50 in assay [1] (setting [2]) is 5.52 to 6.00.

As a reminder, the pIC50 is −log10 of the IC50, conventionally taken in molar units.
